Test: mean ionic activity coefficient (dimensionless); mn = molality of the nth substance listed, in mol/kg
Details: 101 kPa, Liquid, galvanic cell

[Br-].[Na+] [sodium bromide] + O
mean ionic activity coefficient
Details | 298.2 K | 310.2 K
m1 = 0.01 | 0.875 | –
m1 = 0.0508 | 0.835 | 0.714
m1 = 0.1 | – | 0.631
m1 = 0.1009 | 0.777 | –
m1 = 0.25 | – | 0.669
m1 = 0.2509 | 0.799 | –
m1 = 0.5004 | 0.699 | –
m1 = 0.5731 | – | 0.579
m1 = 0.75 | 0.637 | –
m1 = 0.7503 | – | 0.559
m1 = 1 | 0.612 | 0.547
m1 = 1.25 | 0.587 | 0.553
m1 = 1.5 | 0.57 | 0.576
m1 = 1.75 | 0.575 | 0.61
m1 = 2 | 0.642 | 0.635
m1 = 2.25 | 0.633 | 0.643
m1 = 2.5 | 0.644 | 0.646
m1 = 2.75 | 0.584 | 0.711
m1 = 3 | 0.616 | 0.846
